≈ marks a conversion by molar mass, not a printed value. Where “and” joins values, the source holds several entries; their conditions need not be identical. Identical values can stand only once.
Legend:
H. influenzae BLNAR = test: Gerbil otitis media model; conditions: Gerbil otitis media vs. H. influenzae BLNAR, oral TID for two days from 18 h post-infection, bacterial levels in middle ear fluid day four, repeat experiments
S. pneumoniae 1095 [1] = test: Murine respiratory tract infection model; conditions: Murine respiratory tract infection vs. S. pneumoniae 1095; oral BID for two days from 18 h post-infection; survival day ten; repeat experiments
K. pneumoniae 6485 = test: Murine acute systemic infection model; conditions: Murine acute systemic infection vs. K. pneumoniae 6485; oral BID; survival day four post-infection; repeat experiments
[2] = Liver S9 conversion efficiency; assay type: in vitro ADME, human; conditions: liver S9 experiments
S. pneumoniae 1095 [3] = test: Murine acute systemic infection model; conditions: Murine acute systemic infection vs. S. pneumoniae 1095; oral BID; survival day four post-infection; repeat experiments
[4] = system: porcine pancrelipase (PPE); test: Stability in the presence of porcine pancrelipase (PPE); assay type: in vitro ADME
[5] = as above; assay type: in vitro ADME; conditions: pig, porcine pancrelipase (ku-zyme HP) in phosphate buffer, 50 μM substrate, pH 7.4, 37° C.
Equilibrium solubility = assay type: physicochemical; conditions: aqueous buffer, thermodynamic from solid, 25 mM phosphate buffer (pH 5), ambient temperature / 25° C.
Protocol: Vials containing excess prodrug in phosphate buffer were rotated for up to 48 hours. After the equilibrium period, samples were pulled, filtered through 0.45 μm Gelman Acrodisc Nylon syringe filter and analyzed for drug concentration using HPLC. The HPLC conditions were: Column. C18, SymmetryShield RP, Waters, 4.6×150 mm, 3.5 micron; Mobile phase A: Acetonitrile; Mobile phase B: 0.1% TFA in water; Flow rate, 1 mL/min; Run Time: 30 min Inj. vol. 20 μL; Detection: 210 nm; Dissolving solvent: Acetonitrile/water (50:50 v:v).

[6] = Stability in human intestinal juice (HIJ); conditions: pooled human intestinal juice (4 subjects), buffered, pH 7.4
Salmonella/Shigella = test: MIC90 in vitro activity of sulopenem; assay type: cell-based
Protocol: (§1) The in vitro activity of sulopenem (the parent acid (5R,6S)-6-[(1R)-1-hydroxyethyl]-7-oxo-3-[[(1R3S)-tetrahydro-1-oxido-3thienyl]thio]4-thia-1-azabicyclo[3.2.0]hept-2-ene-2-carboxylic acid) was evaluated against pathogens involved in community and hospital infections, as summarized in Table 1. .

[7] = system: Staphylococcus aureus oxacillin-S; test: MIC90 in vitro activity of sulopenem; assay type: cell-based
Protocol: as §1

Listeria monocytogenes = test: MIC90 in vitro activity of sulopenem; assay type: cell-based
Protocol: as §1

[8] = system: Streptococcus agalactiae (Group B); test: MIC90 in vitro activity of sulopenem; assay type: cell-based
Protocol: as §1

Klebsiella pneumoniae = test: MIC90 in vitro activity of sulopenem; assay type: cell-based
Protocol: as §1

Klebsiella oxytoca = test: MIC90 in vitro activity of sulopenem; assay type: cell-based
Protocol: as §1

Prevotella spp = test: MIC90 in vitro activity of sulopenem; assay type: cell-based
Protocol: as §1

[9] = system: Streptococcus pneumoniae penicillin-susceptible; test: MIC90 in vitro activity of sulopenem; assay type: cell-based
[10] = system: Staphylococcus saprophyticus; test: MIC90 in vitro activity of sulopenem; assay type: cell-based
[11] = system: Haemophilus influenzae β-lactamase+; test: MIC90 in vitro activity of sulopenem; assay type: cell-based
Enterobacter cloacae = test: MIC90 in vitro activity of sulopenem; assay type: cell-based
Citrobacter diversus = test: MIC90 in vitro activity of sulopenem; assay type: cell-based; conditions: Citrobacter koseri
[12] = system: Streptococcus pneumoniae penicillin-resistant; test: MIC90 in vitro activity of sulopenem; assay type: cell-based
Escherichia coli = test: MIC90 in vitro activity of sulopenem; assay type: cell-based
[13] = system: Moraxella catarrhelis β-lactamase+; test: MIC90 in vitro activity of sulopenem; assay type: cell-based
Clostridium perfringens = test: microbe, parasite or virus in culture; assay type: cell-based
Morganella morganii = test: MIC90 in vitro activity of sulopenem; assay type: cell-based
[14] = system: Streptococcus pyogenes (Group A); test: MIC90 in vitro activity of sulopenem; assay type: cell-based
Becteroides fragilis = test: MIC90 in vitro activity of sulopenem; assay type: cell-based
Proteus mirabilis = test: MIC90 in vitro activity of sulopenem; assay type: cell-based
[15] = system: Corynebacterium spp (not C. jeikeium); test: MIC90 in vitro activity of sulopenem; assay type: cell-based
Citrobacter freundii = test: MIC90 in vitro activity of sulopenem; assay type: cell-based
Legionella pneumophila = test: microbe, parasite or virus in culture; assay type: cell-based
[16] = system: Klebsiella pneumoniae ESBL+; test: MIC90 in vitro activity of sulopenem; assay type: cell-based
[17] = system: Streptococcus pneumoniae penicillin-intermediate; test: MIC90 in vitro activity of sulopenem; assay type: cell-based
[18] = system: Streptococcus bovis (Group D); test: MIC90 in vitro activity of sulopenem; assay type: cell-based; conditions: Streptococcus equinus
[19] = system: Haemophilus influenzae β-lactamase−; test: MIC90 in vitro activity of sulopenem; assay type: cell-based
Alloiococcus otitidis = test: MIC90 in vitro activity of sulopenem; assay type: cell-based; conditions: Alloiococcus otitis
Enterobacter aerogenes = test: MIC90 in vitro activity of sulopenem; assay type: cell-based; conditions: Klebsiella aerogenes
Neisseria meningitides = test: MIC90 in vitro activity of sulopenem; assay type: cell-based
[20] = system: Viridans Streptococcus group; test: MIC90 in vitro activity of sulopenem; assay type: cell-based
[21] = system: Streptococcus pneumoniae levofloxacin-resistant; test: MIC90 in vitro activity of sulopenem; assay type: cell-based
[22] = system: Moraxella catarrhalis β-lactamase−; test: MIC90 in vitro activity of sulopenem; assay type: cell-based
[23] = in vivo, po; cited from earlier work

## CCC(CC)C(=O)OCOC(=O)C1=C(S[C@H]2CC[S@@+]([O-])C2)S[C@@H]2[C@@H]([C@@H](C)O)C(=O)N12 [Compound 1, (2-Ethyl-1-oxobutoxy)methyl (5R,6S)-6-[(1R)-1-hydroxyethyl]-7-oxo-3-[[(1R,3S)-tetrahydro-1-oxido-3-thienyl]thio]-4-thia-1-azabicyclo[3.2.0]hept-2-ene-2-carboxylate]
H. influenzae BLNAR
  ED50: 4.5 mg/kg
H. influenzae BLNAR; Haemophilus influenzae, in Meriones unguiculatus, po
  ED50: 8.7 mg/kg
other
  intrinsic clearance in human intestinal juice (in words): relatively low intrinsic clearance
human, pH 7.4
  HIJ Clint (avg): 0.07 mL/min
S. pneumoniae 1095 [1]
  PD50: 16.4 mg/kg and 12.5 mg/kg and 9.5 mg/kg
K. pneumoniae 6485
  PD50: 88.6 mg/kg and 63.4 mg/kg
[2]
  conversion to sulopenem (in words): fully converted to sulopenem
S. pneumoniae 1095 [3]
  PD50: 12.5 mg/kg and 6.3 mg/kg
[4]
  PPE half-life (in words): relatively long PPE half-life
[5]; pH 7.4, ku-zyme Lot 1
  half-life at 50 µM: 11.7 ± 3.8 min
[5]; pH 7.4, ku-zyme lot 2
  half-life at 50 µM: 17.9 min
Equilibrium solubility
  solubility: 1210 µg/mL (≈ 2530 µM)
[6]
  Km: 91 µM

## C[C@@H](O)[C@H]1C(=O)N2C(C(=O)O)=C(S[C@H]3CC[S@@+]([O-])C3)S[C@H]12 [Sulopenem, (5R,6S)-6-[(1R)-1-hydroxyethyl]-7-oxo-3-[[(1R,3S)-tetrahydro-1-oxido-3-thienyl]thio]-4-thia-1-azabicyclo[3,2.0]hept-2-ene-2-carboxylic acid]
Salmonella/Shigella
  MIC90: 0.125 µg/mL (≈ 0.358 µM)
[7]
  MIC90: 0.125 µg/mL (≈ 0.358 µM)
Listeria monocytogenes
  MIC90: 0.125 µg/mL (≈ 0.358 µM)
[8]
  MIC90: 0.125 µg/mL (≈ 0.358 µM)
Klebsiella pneumoniae
  MIC90: 0.125 µg/mL (≈ 0.358 µM)
Klebsiella oxytoca
  MIC90: 0.125 µg/mL (≈ 0.358 µM)
Prevotella spp
  MIC90: 0.125 µg/mL (≈ 0.358 µM)
[9]
  MIC90: 0.03 µg/mL (≈ 0.0858 µM)
[10]
  MIC90: 0.5 µg/mL (≈ 1.43 µM)
[11]
  MIC90: 0.5 µg/mL (≈ 1.43 µM)
Enterobacter cloacae
  MIC90: 1 µg/mL (≈ 2.86 µM)
Citrobacter diversus
  MIC90: 0.06 µg/mL (≈ 0.172 µM)
[12]
  MIC90: 1 µg/mL (≈ 2.86 µM)
Escherichia coli
  MIC90: 0.06 µg/mL (≈ 0.172 µM)
[13]
  MIC90: 0.125 µg/mL (≈ 0.358 µM)
Clostridium perfringens
  MIC90: 0.06 µg/mL (≈ 0.172 µM)
Morganella morganii
  MIC90: 2 µg/mL (≈ 5.72 µM)
[14]
  MIC90: 0.03 µg/mL (≈ 0.0858 µM)
Becteroides fragilis
  MIC90: 0.5 µg/mL (≈ 1.43 µM)
Proteus mirabilis
  MIC90: 0.5 µg/mL (≈ 1.43 µM)
[15]
  MIC90: 2 µg/mL (≈ 5.72 µM)
Citrobacter freundii
  MIC90: 0.25 µg/mL (≈ 0.715 µM)
Legionella pneumophila
  MIC90: 0.06 µg/mL (≈ 0.172 µM)
[16]
  MIC90: 0.25 µg/mL (≈ 0.715 µM)
[17]
  MIC90: 0.25 µg/mL (≈ 0.715 µM)
[18]
  MIC90: 0.06 µg/mL (≈ 0.172 µM)
[19]
  MIC90: 0.25 µg/mL (≈ 0.715 µM)
Alloiococcus otitidis
  MIC90: 1 µg/mL (≈ 2.86 µM)
Enterobacter aerogenes
  MIC90: 0.5 µg/mL (≈ 1.43 µM)
Neisseria meningitides
  MIC90: 0.06 µg/mL (≈ 0.172 µM)
[20]
  MIC90: 0.25 µg/mL (≈ 0.715 µM)
[21]
  MIC90: 0.5 µg/mL (≈ 1.43 µM)
[22]
  MIC90: 0.03 µg/mL (≈ 0.0858 µM)
[23]
  oral bioavailability (in words): not appreciably orally bioavailable

Reference: patent US7795244B2, “Penem prodrugs” (priority 2006, dated 2010)
